Results published in article PMC2854131 (PLoS ONE, 2010).
Read-outs that look alike come from different tables or passages of the source.

Columns and labels:
[1] = target: T1, recombinant BoNTAe (BoNTA endopeptidase) (Clostridium botulinum, UniProt P0DPI0); settings: cited from earlier work
[2] = Balb/c, mouse, in vivo, ip, 2 mg/kg
physchem = settings: water
[3] = target: T1, recombinant BoNTAe (BoNTA endopeptidase); test: biochemical; settings: read-out: % BoNTAe inhibition
in vivo = settings: Balb/c, mouse, ip, 2 mg/kg
[4] = mouse, in vivo
BoNTA = BoNTA (Clostridium botulinum, UniProt P0DPI0); design: species or system Balb/c mice; settings: mouse, in vivo

Compound	Ki ([1]; read-out: Ki^app)	C24 (concentration 24 hours after one dose) [2]	solubility (physchem)	inhibition at 20 µM [3]	AUC(0-t) (in vivo)	Cmax (in vivo)	half-life (in vivo; T1/2)	half-life (in vivo; in vivo half-life (t1/2))	acute toxicity to mice, in words [4]	survival during the 12-hour period after the BoNTA challenge, in words (BoNTA)	treated mice that died 48 hours after the toxin challenge (BoNTA)	protection (survival) of mice 24 hours after the toxin challenge (BoNTA)	protection (survival) of mice 48 hours after the toxin challenge (BoNTA)	protection (survival) of mice during the 12-hour period after the toxin challenge (BoNTA)	serotype specificity of BoNTAe inhibition, in words [1]	Ki ([1]; read-out: Ki app)
NCCCCn1c(-c2ccccc2)cc2ccc(C(=O)c3cc(CC(=O)NO)c(-c4ccccc4)s3)cc21 [APH, reference compound]	7 µM	–	–	–	–	–	–	–	–	–	–	–	–	–	–	–
NCCCCn1c(-c2ccccc2)c(F)c2ccc(C(=O)c3cc(CC(=O)NO)c(-c4cccc(N)c4)s3)cc21 [Inhibitor F3A, 2-(5-(1-(4-Aminobutyl)-3-fluoro-2-phenyl-1H-indole-6-carbonyl)-2-(3-aminophenyl)thiophen-3-yl)-N-hydroxyacetamide]	–	7.0 ng/mL	≥ 5 mM	47 ± 1%	1390 ng·h/mL	256 ng/mL	6.25 h	~6 h	no acute toxicity	all mice treated with any of the three inhibitors survived	90%	–	–	–	–	–
NCCCCn1c(-c2ccccc2)c(F)c2ccc(C(=O)c3cc(CC(=O)NO)c(-c4ccc(O)cc4)s3)cc21 [Inhibitor F4H, 2-(5-(1-(4-Aminobutyl)-3-fluoro-2-phenyl-1H-indole-6-carbonyl)-2-(4-hydroxyphenyl)thiophen-3-yl)-N-hydroxyacetamide]	–	<0.5 ng/mL	≥ 5 mM	82 ± 6%	1390 ng·h/mL	738 ng/mL	6.5 h	~6 h	no acute toxicity	all mice treated with any of the three inhibitors survived	40%	70%	60%	100%	–	–
NCCCCn1c(-c2ccccc2)cc2ccc(C(=O)c3cc(CC(=O)NO)c(-c4cccc(O)c4)s3)cc21 [Inhibitor H3H]	4 µM	3.0 ng/mL	–	78 ± 4%	1550 ng·h/mL	497 ng/mL	4.35 h	~4 h	no acute toxicity	all mice treated with any of the three inhibitors survived	40%	–	–	–	serotype-specific	3.8 ± 0.77 µM
